Source: US20090221581A1, “Methods of treating pain” (priority 2005, published 2009)
pIC50: −log10 of the molar value.

Key:
CDK6/CycD1 = target: T1, CDK6/CycD1 (Homo sapiens, UniProt Q00534); test: In vitro kinase inhibition assay, CDK6/CycD1; format: biochemical
T1 construct: host or cells: Sf9 insect cells, baculovirus
Procedure: (§1) In vitro kinase inhibition assays may be performed according to the following protocol:
(§2) Compounds are used as 1×10^−02 M stock solutions in 100% DMSO, 100 μl each in column 2 of three 96-well V-shaped microtiter plates (in the following, said plates are referred to as “master plates”).
(§3) Subsequently, the 1×10^−02 M stock solutions in column 2 of the master plates are subjected to a serial, semi-logarithmic dilution using 100% DMSO as a solvent, resulting in 10 different concentrations, the dilution endpoint being 3×10^−07 M/100% DMSO in column 12. Column 1 and 7 are filled with 100% DMSO as controls. […]
(§4) For the determination of inhibitory profiles, the following protein kinases were used: CDK2/CycA, CDK4/CycD1, CDK6/CycD1 and CDK9/CycT. […] The purity of each kinase is determined by SDS-PAGE/silver staining and the identity of each kinase is verified by western blot analysis with kinase specific antibodies or by mass spectroscopy. […]
(§5) Reaction mixtures are incubated at 30° C. for 80 minutes. […] Incorporation of ^33P is determined with a microplate scintillation counter (Microbeta, Wallac). […]
(§6) The median value of the counts in column 1 (n=8) of each assay plate is defined as “low control”. This value reflects unspecific binding of radioactivity to the plate in the absence of a protein kinase but in the presence of the substrate. […]

CDK4/CycD1 = target: T2, CDK4/CycD1 (Homo sapiens, UniProt P11802); test: In vitro kinase inhibition assay, CDK4/CycD1; format: biochemical
T2 construct: host or cells: Sf9 insect cells, baculovirus
Procedure: as §1, §2, §3, §4, §5, §6

CDK9/CycT = target: T3, CDK9/CycT (Homo sapiens, UniProt P50750); test: In vitro kinase inhibition assay, CDK9/CycT; format: biochemical
T3 construct: host or cells: Sf9 insect cells, baculovirus
Procedure: as §1, §2, §3, §4, §5, §6

CDK1/CycB = target: T4, CDK1/CycB (Homo sapiens, UniProt P06493); test: In vitro kinase inhibition assay, CDK1/CycB; format: biochemical
T4 construct: made in house; host or cells: Sf9 insect cells, baculovirus

CDK2/CycA = target: T5, CDK2/CycA (Homo sapiens, UniProt P24941); test: In vitro kinase inhibition assay, CDK2/CycA; format: biochemical
T5 construct: host or cells: Sf9 insect cells, baculovirus
Procedure: as §1, §2, §3, §4, §5, §6

carrageenan-treated mice = test: Carrageenan assay, paw edema; format: in vivo; conditions: 30 mg/kg i.p. 30 min prior to carrageenan
Excerpt: The model of carrageenan-induced paw edema constitutes a standard laboratory assay used to predict anti-inflammatory activity of therapeutically active compounds and reduction of inflammation-induced pain perception achieved by administration of therapeutically active compounds.
The basic measurement constitutes in the measurement of edema size and of mechanical as well as thermal hypersensitivity in response to irritants, such as carrageenan.
Inflammation and subsequent inflammatory pain is induced by subcutaneous injection of 25 μl of 1% carrageenan (in saline) into the hind paw (ipsi-lateral paw) of mice. Groups of 10 mice each received compound A, 30 mg/kg body weight, vehicle (DMA/Labrafil; 10:90) and saline (physiol. NaCl) by i.p. injection 30 min prior to carrageenan injection.
Paw edema induced by carrageenan injection was detected by increased paw size measured from dorsal to plantar at the metatarsus region of the injected (ipsi-lateral) paws. Sizes of ipsi- and contra-lateral paws (see FIG. 6, paw size [mm]) served as surrogate markers for inflammation and were measured at several time points after carrageenan injection: 1 h before injection (−1), immediately after injection, 1 h (1), 2 h (2), 4 h (4), 5 h (5), 6 h (6), 7 h (7), 24 h (24), 48 h (48), 72 h (72), 96 h (96), and 98 h (98) after injection. […]

T3 sequence (P50750 whole entry): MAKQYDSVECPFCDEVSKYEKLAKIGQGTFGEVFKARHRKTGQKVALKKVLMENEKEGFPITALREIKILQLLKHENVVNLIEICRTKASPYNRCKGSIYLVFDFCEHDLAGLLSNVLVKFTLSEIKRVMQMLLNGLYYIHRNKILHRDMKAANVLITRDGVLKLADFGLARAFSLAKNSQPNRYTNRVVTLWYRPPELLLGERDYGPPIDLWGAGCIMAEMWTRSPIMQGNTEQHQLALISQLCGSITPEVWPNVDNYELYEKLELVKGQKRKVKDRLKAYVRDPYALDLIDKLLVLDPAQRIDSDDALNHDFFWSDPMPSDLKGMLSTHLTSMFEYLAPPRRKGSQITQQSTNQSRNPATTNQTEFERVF
T3 sequence (O60563 whole entry partner): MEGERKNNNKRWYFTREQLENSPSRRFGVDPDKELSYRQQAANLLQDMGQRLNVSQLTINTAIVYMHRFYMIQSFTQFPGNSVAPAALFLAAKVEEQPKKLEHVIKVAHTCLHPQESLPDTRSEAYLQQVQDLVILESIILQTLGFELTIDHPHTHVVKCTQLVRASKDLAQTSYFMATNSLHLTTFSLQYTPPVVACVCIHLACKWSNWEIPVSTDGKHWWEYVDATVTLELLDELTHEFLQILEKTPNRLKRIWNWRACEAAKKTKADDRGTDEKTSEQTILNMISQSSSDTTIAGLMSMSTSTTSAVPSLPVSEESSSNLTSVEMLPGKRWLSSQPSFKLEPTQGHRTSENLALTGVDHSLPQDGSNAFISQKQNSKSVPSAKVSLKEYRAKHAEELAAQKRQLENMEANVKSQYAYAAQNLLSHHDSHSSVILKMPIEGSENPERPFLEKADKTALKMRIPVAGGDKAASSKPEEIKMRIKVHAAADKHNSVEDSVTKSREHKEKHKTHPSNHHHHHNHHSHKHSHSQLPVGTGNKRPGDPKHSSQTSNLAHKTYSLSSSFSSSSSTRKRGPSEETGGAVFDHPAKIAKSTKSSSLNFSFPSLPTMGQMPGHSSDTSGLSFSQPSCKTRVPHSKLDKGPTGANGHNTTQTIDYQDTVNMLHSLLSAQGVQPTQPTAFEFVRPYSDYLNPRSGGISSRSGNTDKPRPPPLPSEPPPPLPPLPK
T2 sequence (P11802 whole entry): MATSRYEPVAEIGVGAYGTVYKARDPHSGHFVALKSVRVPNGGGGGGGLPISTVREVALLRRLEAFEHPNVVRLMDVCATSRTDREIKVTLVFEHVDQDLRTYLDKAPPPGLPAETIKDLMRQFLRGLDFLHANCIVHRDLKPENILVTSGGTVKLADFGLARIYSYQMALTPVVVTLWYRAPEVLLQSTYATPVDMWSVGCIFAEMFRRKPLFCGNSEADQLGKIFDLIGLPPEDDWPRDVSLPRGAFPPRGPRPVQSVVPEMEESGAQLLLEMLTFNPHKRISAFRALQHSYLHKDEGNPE
T2 sequence (P24385 whole entry partner): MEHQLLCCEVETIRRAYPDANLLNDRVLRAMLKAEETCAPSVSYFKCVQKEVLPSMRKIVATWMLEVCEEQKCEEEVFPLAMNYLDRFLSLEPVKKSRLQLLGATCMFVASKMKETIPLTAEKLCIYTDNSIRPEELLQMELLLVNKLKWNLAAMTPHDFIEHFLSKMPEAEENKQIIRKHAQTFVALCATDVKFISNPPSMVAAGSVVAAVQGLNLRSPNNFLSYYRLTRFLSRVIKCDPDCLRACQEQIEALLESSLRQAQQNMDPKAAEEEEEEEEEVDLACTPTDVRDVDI
T4 sequence (P06493 whole entry): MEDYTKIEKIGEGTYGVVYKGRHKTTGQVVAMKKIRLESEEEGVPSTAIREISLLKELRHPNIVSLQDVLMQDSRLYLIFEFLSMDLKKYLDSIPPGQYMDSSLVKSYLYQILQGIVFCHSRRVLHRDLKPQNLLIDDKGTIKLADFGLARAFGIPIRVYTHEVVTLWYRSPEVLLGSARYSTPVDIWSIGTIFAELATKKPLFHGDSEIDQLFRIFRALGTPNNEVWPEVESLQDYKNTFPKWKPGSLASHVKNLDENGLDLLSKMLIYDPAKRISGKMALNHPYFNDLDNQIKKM
T4 sequence (P14635 whole entry partner): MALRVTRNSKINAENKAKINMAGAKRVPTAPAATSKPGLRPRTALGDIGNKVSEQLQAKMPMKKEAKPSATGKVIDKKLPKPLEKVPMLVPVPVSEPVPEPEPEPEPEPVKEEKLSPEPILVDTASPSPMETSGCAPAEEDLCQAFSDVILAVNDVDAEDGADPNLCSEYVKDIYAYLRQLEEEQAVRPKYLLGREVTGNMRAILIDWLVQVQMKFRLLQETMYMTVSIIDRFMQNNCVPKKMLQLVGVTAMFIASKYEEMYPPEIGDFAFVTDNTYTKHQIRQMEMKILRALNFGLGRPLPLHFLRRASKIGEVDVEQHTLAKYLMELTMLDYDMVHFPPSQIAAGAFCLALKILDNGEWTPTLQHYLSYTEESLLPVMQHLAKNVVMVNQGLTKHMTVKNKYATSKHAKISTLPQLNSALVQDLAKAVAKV
T1 sequence (Q00534 whole entry): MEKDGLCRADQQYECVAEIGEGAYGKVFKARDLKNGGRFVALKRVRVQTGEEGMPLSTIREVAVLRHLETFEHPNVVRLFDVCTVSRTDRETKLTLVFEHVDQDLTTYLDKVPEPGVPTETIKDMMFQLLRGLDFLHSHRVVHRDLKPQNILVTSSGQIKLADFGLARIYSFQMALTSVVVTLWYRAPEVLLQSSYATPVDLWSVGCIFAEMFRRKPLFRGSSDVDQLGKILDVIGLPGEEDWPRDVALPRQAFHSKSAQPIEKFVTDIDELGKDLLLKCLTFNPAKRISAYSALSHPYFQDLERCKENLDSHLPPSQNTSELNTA
T1 sequence (P24385 whole entry partner): as the sequence (P24385 whole entry partner) above

pIC50 (CDK6/CycD1): 5.72 | pIC50 (CDK4/CycD1): 5.55 | pIC50 (CDK9/CycT; CDK9/CycT): 6.20 | specificity for CDK9 over other CDKs (CDK9/CycT; from IC50 values of Table 1): high specificity for CDK9 | pIC50 (CDK1/CycB): 4.80 | pIC50 (CDK2/CycA): 5.00
Structure (SMILES): COc1ccccc1-c1cc(Nc2cccc(S(N)(=O)=O)c2)ncn1 [Compound A]
increase in paw size (carrageenan-treated mice; 24 h after carrageenan injection (control mice 30%)): 8% | increase in paw size (carrageenan-treated mice; within the first hour after carrageenan injection): 10%
